test system: HEK293 cells; test: HEK293 VLCFA-LPC IC50 determination (13C-labeled C26:0 LPC by UHPLC/MS); type: cell-based, human; details: Homo sapiens, HEK293, 48 h, average of one or more replicates; 13C-labeled C26:0 LPC, 48 hours; read-out: Average HEK293 IC50
Procedure, shortened: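 Suspension HEK293 cells (final 0.5 million/mL after mixing with equal volume) incubated 48 hours with compound plus 13C-acetate (1.0 mg/mL in added media), shaking at 37° C. Lipids extracted with hexane/isopropanol or methanol, C13:0 LPC standard. UHPLC/MS of 13C-labeled C26:0 LPC (638.500/104.100 m/z); IC50 by four-parameter fit.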

Row | SMILES | IC50
1 | Cc1nccc(-n2ccc(NC(=O)C3(c4ccccc4F)CC3)n2)c1C [Compound 343, N-[1-(2,3-dimethyl-4-pyridyl)pyrazol-3-yl]-1-(2-fluorophenyl)cyclopropanecarboxamide] | > 5000 nM
2 | COc1ccc(-n2ccc(NC(=O)C3(c4ccccc4F)CC3)n2)cn1 [Compound 319, 1-(2-fluorophenyl)-N-(1-(6-methoxypyridin-3-yl)-1H-pyrazol-3-yl)cyclopropane-1-carboxamide] | 58 nM
3 | O=C(Nc1ccn(-c2cc(F)c(O)c(F)c2)n1)C1(c2ccccc2F)CC1 [Compound 357, N-[1-(3,5-difluoro-4-hydroxy-phenyl)pyrazol-3-yl]-1-(2-fluorophenyl)cyclopropanecarboxamide] | > 5000 nM
4 | Cc1cc(-n2ccc(NC(=O)C3(c4ccccc4F)CC3)n2)c(C)cn1 [Compound 350, N-[1-(2,5-dimethyl-4-pyridyl)pyrazol-3-yl]-1-(2-fluorophenyl)cyclopropanecarboxamide] | > 5000 nM
5 | COc1ncc(-n2ccc(NC(=O)C3(c4ccccc4F)CC3)n2)cn1 [Compound 338, 1-(2-fluorophenyl)-N-[1-(2-methoxylpyrimidin-5-yl)pyrazol-3-yl]cyclopropanecarboxamide] | > 5000 nM
6 | O=C(Nc1ccn(-c2ccsn2)n1)C1(c2ccccc2F)CC1 [Compound 402, 1-(2-fluorophenyl)-N-(1-isothiazol-3-ylpyrazol-3-yl)cyclopropanecarboxamide] | 60 nM
7 | CN(C(=O)Cc1ccccc1F)c1ccn(-c2ccccc2)n1 [Compound 362, 2-(2-fluorophenyl)-N-methyl-N-(1-phenyl-1H-pyrazol-3-yl)acetamide] | > 5000 nM
8 | N#Cc1cc(-n2ccc(NC(=O)C3(c4ccccc4F)CC3)n2)ccn1 [Compound 329, N-[1-(2-cyano-4-pyridyl)pyrazol-3-yl]-1-(2-fluorophenyl)cyclopropanecarboxamide] | 3600 nM
9 | Cc1cc(-n2ccc(NC(=O)C3(c4ccccc4F)CC3)n2)nc(C)n1 [Compound 337, N-[1-(2,6-dimethylpyrimidin-4-yl)pyrazol-3-yl]-1-(2-fluorophenyl)cyclopropanecarboxamide] | > 5000 nM

same assay, conditions: Homo sapiens, HEK293, HEK293 cells; average of one or more replicates; read-out: Average HEK293 IC50

Row | SMILES | IC50
10 | Cc1cc(NC(=O)C2(c3ncccc3F)CC2(C)C)nn1-c1ccc(F)cc1F (centres unmarked) [Compound 515, N-[1-(2,4-difluorophenyl)-5-methyl-pyrazol-3-yl]-1-(3-fluoro-2-pyridyl)-2,2-dimethyl-cyclopropanecarboxamide] | > 5000 nM
11 | O=C(Nc1ccn(-c2nccs2)n1)C1(c2ccccc2)CC1 [Compound 81, 1-phenyl-N-(1-thiazol-2-ylpyrazol-3-yl)cyclopropanecarboxamide] | 11 nM
12 | CC1CC1(C(=O)Nc1ccn(-c2ccc(F)c(F)c2)n1)c1ncccc1F (centres unmarked) [Compound 506, N-[1-(3,4-difluorophenyl)pyrazol-3-yl]-1-(3-fluoro-2-pyridyl)-2-methyl-cyclopropanecarboxamide] | 220 nM
13 | O=C(Nc1ccn(-c2ccc(F)cc2)n1)C1(c2ncccc2F)CC1 [Compound 456, N-[1-(4-fluorophenyl)pyrazol-3-yl]-1-(3-fluoro-2-pyridyl)cyclopropanecarboxamide] | 100 nM
14 | COc1cccc(C2(C(=O)Nc3ccn(-c4ccnc(F)c4)n3)CC2)c1 [Compound 250, N-[1-(2-fluoro-4-pyridyl)pyrazol-3-yl]-1-(3-methoxyphenyl)cyclopropanecarboxamide] | 170 nM
15 | O=C(Nc1ccn(-c2ccnc(F)c2)n1)C1(c2ccccc2)CCOCC1 [Compound 174, N-[1-(2-fluoro-4-pyridyl)pyrazol-3-yl]-4-phenyl-tetrahydropyran-4-carboxamide] | > 5000 nM
16 | O=C(Nc1ccn(-c2ccc(F)cc2)n1)C1(c2ccccc2F)CC1 [Compound 182, 1-(2-fluorophenyl)-N-[1-(4-fluorophenyl)pyrazol-3-yl]cyclopropanecarboxamide] | 74 nM
17 | O=C(Nc1ccn(-c2ccnc(F)c2)n1)C1(c2cc(Cl)ccc2F)CC1 [Compound 264, 1-(5-chloro-2-fluoro-phenyl)-N-[1-(2-fluoro-4-pyridyl)pyrazol-3-yl]cyclopropanecarboxamide] | 190 nM
18 | O=C(Nc1ccn(-c2ccccc2)n1)C1(c2ccccc2)CC1(F)F (racemic) [Compound 143, 2,2-difluoro-1-phenyl-N-(1-phenyl-1H-pyrazol-3-yl)cyclopropane-1-carboxamide] | 140 nM
19 | O=C(Nc1ccn(-c2ccccn2)n1)C1(c2ccccc2)CC1 [Compound 212, 1-phenyl-N-[1-(2-pyridyl)pyrazol-3-yl]cyclopropanecarboxamide] | 190 nM
20 | O=C(Cc1ccccc1)Nc1ccn(-c2cnccn2)n1 [Compound 218, 2-phenyl-N-(1-pyrazin-2-ylpyrazol-3-yl)acetamide] | > 2000 nM
21 | O=C(Cc1ccccc1)Nc1ccn(-c2ccnc(Cl)c2)n1 [Compound 83, N-(1-(2-chloropyridin-4-yl)-1H-pyrazol-3-yl)-2-phenylacetamide] | 600 nM
22 | Cc1cc(-n2ccc(NC(=O)Cc3ccccc3)n2)ccn1 [Compound 109, N-[1-(2-methyl-4-pyridyl)pyrazol-3-yl]-2-phenyl-acetamide] | > 10000 nM
23 | O=C(Cc1ccccc1)Nc1ccn(-c2ccc(F)c(Cl)c2)n1 [Compound 197, N-[1-(3-chloro-4-fluoro-phenyl)pyrazol-3-yl]-2-phenyl-acetamide] | > 5000 nM
24 | Cn1ccc(-n2ccc(NC(=O)C3(c4ccccc4)CC3)n2)n1 [Compound 231, N-[1-(1-methylpyrazol-3-yl)pyrazol-3-yl]-1-phenyl-cyclopropanecarboxamide] | > 5000 nM
25 | CC1(C)CC1(C(=O)Nc1ccn(-c2ccnc(F)c2)n1)c1ccccc1 (centres unmarked) [Compound 165, N-[1-(2-fluoro-4-pyridyl)pyrazol-3-yl]-2,2-dimethyl-1-phenyl-cyclopropanecarboxamide] | 50 nM
26 | O=C(Cn1cncn1)Nc1ccn(-c2ccnc(F)c2)n1 [Compound 303, N-[1-(2-fluoro-4-pyridyl)pyrazol-3-yl]-2-(1,2,4-triazol-1-yl)acetamide] | > 5000 nM

Row | SMILES | IC50
27 | O=C(Nc1ccn(-c2ccc(Cl)c(F)c2)n1)C1(c2ccccc2F)CC1 [Compound 194, N-[1-(4-chloro-3-fluoro-phenyl)pyrazol-3-yl]-1-(2-fluorophenyl)cyclopropanecarboxamide] | > 5000 nM
28 | O=C(Cc1cccc(Cl)c1Cl)Nc1ccn(-c2ccccc2)n1 [Compound 69, 2-(2,3-dichlorophenyl)-N-(1-phenylpyrazol-3-yl)acetamide] | 5000 nM
29 | Cc1cc(-n2ccc(NC(=O)C3(c4ccc(F)cc4)CC3)n2)ccn1 [Compound 108, 1-(4-fluorophenyl)-N-[1-(2-methyl-4-pyridyl)pyrazol-3-yl]cyclopropanecarboxamide] | 770 nM
30 | O=C(Nc1ccn(-c2ccnc(F)c2)n1)C1(c2cc(F)cc(F)c2)CC1 [Compound 270, 1-(3,5-difluorophenyl)-N-[1-(2-fluoro-4-pyridyl)pyrazol-3-yl]cyclopropanecarboxamide] | 280 nM
31 | C[C@@H](C(=O)Nc1ccn(-c2ccccc2)n1)c1ccccc1 [Compound 27, (2R)-2-phenyl-N-(1-phenylpyrazol-3-yl)propanamide] | 210 nM
32 | O=C(Cc1ccccc1)Nc1ccn(-c2cccnc2)n1 [Compound 213, 2-phenyl-N-(1-(pyridin-3-yl)-1H-pyrazol-3-yl)acetamide] | 1200 nM
33 | O=C(Nc1ccn(-c2ccnc(F)c2)n1)C1(c2ccc(F)cc2)CC1 [Compound 255, 1-(4-fluorophenyl)-N-[1-(2-fluoro-4-pyridyl)pyrazol-3-yl]cyclopropanecarboxamide] | 100 nM
34 | O=C(Nc1ccn(-c2ccccc2)n1)C1(c2c(F)cccc2Cl)CC1 [Compound 275, 1-(2-chloro-6-fluoro-phenyl)-N-(1-phenylpyrazol-3-yl)cyclopropanecarboxamide] | 50 nM
35 | O=C(Cc1ccc(OC(F)(F)F)cc1)Nc1ccn(-c2ccccc2)n1 [Compound 53, N-(1-phenylpyrazol-3-yl)-2-[4-(trifluoromethoxy)phenyl]acetamide] | > 5000 nM
36 | O=C(Cn1cccc1)Nc1ccn(-c2ccccc2)n1 [Compound 297, N-(1-phenylpyrazol-3-yl)-2-pyrrol-1-yl-acetamide] | 1800 nM
37 | O=C(Nc1ccn(-c2cncc(F)c2)n1)C1(c2cccc(OC(F)(F)F)c2)CC1 [Compound 465] | 24 nM
38 | O=C(Nc1ccn(-c2ccccc2)n1)C1(c2c(F)cccc2F)CC1 [Compound 267, 1-(2,6-difluorophenyl)-N-(1-phenylpyrazol-3-yl)cyclopropanecarboxamide] | 13 nM
39 | O=C(Nc1ccn(-c2cc(F)cc(F)c2)n1)C1(c2ncccc2F)CC1 [Compound 461, N-[1-(3,5-difluorophenyl)pyrazol-3-yl]-1-(3-fluoro-2-pyridyl)cyclopropanecarboxamide] | 76 nM
40 | O=C(Cc1ccccc1)Nc1ccn(-c2nccs2)n1 [Compound 89, 2-phenyl-N-(1-thiazol-2-ylpyrazol-3-yl)acetamide] | 340 nM
41 | O=C(Nc1ccn(-c2ccnc(F)c2)n1)C1(c2ccccc2)CCCCC1 [Compound 148, N-[1-(2-fluoro-4-pyridyl)pyrazol-3-yl]-1-phenyl-cyclohexanecarboxamide] | > 5000 nM
42 | O=C(Cc1ccccc1)Nc1ccn(-c2cc(F)ccc2F)n1 [Compound 160, N-[1-(2,5-difluorophenyl)pyrazol-3-yl]-2-phenyl-acetamide] | > 5000 nM
43 | Cn1cccc1CC(=O)Nc1ccn(-c2ccnc(F)c2)n1 [Compound 309, N-[1-(2-fluoro-4-pyridyl)pyrazol-3-yl]-2-(1-methylpyrrol-2-yl)acetamide] | > 5000 nM

same assay, conditions: average of one or more replicates; 13C-labeled C26:0 LPC, 48 hours; read-out: Average HEK293 IC50

Row | SMILES | IC50
44 | O=C(Nc1ccn(-c2cncc(F)c2)n1)C1(c2ccccc2)CC1(F)F (single isomer, unassigned) [Compound 435] | 60 nM

Reference: patent US20180251431A1 (VERTEX PHARMACEUTICALS INCORPORATED, priority 2016, published 2018)
